From patent US10906915B2, “Substituted pyrazoloazepin-4-ones and their use as phosphodiesterase inhibitors” (LEO Pharma A/S, priority 2016, dated 2021)
pIC50: −log10 of the molar value.

Target: human PDE4D catalytic domain (UniProt no. Q08499) (Homo sapiens (Human), UniProt Q08499)
Experiment: PDE4 assay (TR-FRET, FAM-cAMP cleavage)
Format: biochemical
Conditions: human PDE4D catalytic domain; molar concentration giving 50% inhibition of substrate cleavage; read-out: PDE4 IC50 range
Protocol: The human PDE4D catalytic domain (UniProt no. Q08499 [[…]]) was incubated with a mixture of non-labelled cAMP (cyclic adenosine monophosphate) and fluorescein amidite (FAM) conjugated cAMP and titrated test or reference compound. Following brief incubation the enzymatic reaction was stopped by addition of binding buffer containing nanoparticles with immobilized trivalent metal ions capable of binding 1) AMP phospho groups and 2) terbium (Tb) donor fluorophores. Subsequent excitation of the Tb donor triggers time-resolved FRET to adjacent FAM acceptor molecules resulting in light emission. In the presence of a PDE4 inhibitor, AMP generation was reduced resulting in a lower fluorescence signal. The cAMP phosphodiester is not bound by the detection system.
The results were calculated as the molar concentrations resulting in 50% inhibition of the substrate cleavage compared to controls samples, and are expressed as a range of IC50 (nM).

Sequence of human PDE4D catalytic domain (Q08499 380-740 limits assumed): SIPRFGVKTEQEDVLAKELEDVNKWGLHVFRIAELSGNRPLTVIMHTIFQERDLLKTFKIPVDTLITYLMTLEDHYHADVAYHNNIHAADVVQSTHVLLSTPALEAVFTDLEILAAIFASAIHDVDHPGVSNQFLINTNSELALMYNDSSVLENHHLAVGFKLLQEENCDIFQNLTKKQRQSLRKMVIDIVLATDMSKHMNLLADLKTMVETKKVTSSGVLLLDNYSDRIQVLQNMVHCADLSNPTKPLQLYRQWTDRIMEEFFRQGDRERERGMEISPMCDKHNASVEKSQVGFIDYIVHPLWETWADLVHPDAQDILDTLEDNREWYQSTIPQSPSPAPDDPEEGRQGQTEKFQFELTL

| SMILES | pIC50 |
| --- | --- |
| CCc1nn(C[C@@H](C)COC(=O)c2ccc(F)c(F)c2)c2c1C(=O)NCC1(CCOCC1)C2 [Example 178, [(2R)-3-(3-ethyl-4-oxo-spiro[6,8-dihydro-5H-pyrazolo[4,3-c]azepine-7,4′-tetrahydropyran]-1-yl)-2-methyl-propyl] 3,4-difluorobenzoate] | > 7.00 |
| CCc1nn(C[C@@H](C)COC(=O)c2cccc(S(=O)(=O)N3CCOCC3)c2)c2c1C(=O)NCC1(CCOCC1)C2 [Example 248, [(2R)-3-(3-ethyl-4-oxo-spiro[6,8-dihydro-5H-pyrazolo[4,3-c]azepine-7,4′-tetrahydropyran]-1-yl)-2-methyl-propyl] 3-morpholinosulfonylbenzoate] | > 7.00 |
| CCc1nn(C[C@@H](C)COC(=O)c2ccc(Cl)cc2F)c2c1C(=O)NCC1(CCOCC1)C2 [Example 205, [(2R)-3-(3-ethyl-4-oxo-spiro[6,8-dihydro-5H-pyrazolo[4,3-c]azepine-7,4′-tetrahydropyran]-1-yl)-2-methyl-propyl] 4-chloro-2-fluoro-benzoate] | > 7.00 |
| CCc1nn(CCCOC(=O)c2ccc(Cl)c(OC)c2)c2c1C(=O)NCC1(CCOCC1)C2 [Example 87, 3-(3-ethyl-4-oxo-spiro[6,8-dihydro-5H-pyrazolo[4,3-c]azepine-7,4′-tetrahydropyran]-1-yl)propyl 4-chloro-3-methoxy-benzoate] | > 7.00 |
| CCc1nn(CCCOC(=O)c2ccc(C)cc2C)c2c1C(=O)NCC1(CCOCC1)C2 [Example 27, 3-(3-ethyl-4-oxo-spiro[6,8-dihydro-5H-pyrazolo[4,3-c]azepine-7,4′-tetrahydropyran]-1-yl)propyl 2,4-dimethylbenzoate] | > 7.00 |
| CCc1nn(CCCOC(=O)c2cc(F)cc(Cl)c2)c2c1C(=O)NCC1(CCOCC1)C2 [Example 79, 3-(3-ethyl-4-oxo-spiro[6,8-dihydro-5H-pyrazolo[4,3-c]azepine-7,4′-tetrahydropyran]-1-yl)propyl 3-chloro-5-fluoro-benzoate] | > 7.00 |
| CCc1nn(C[C@@H](C)COC(=O)c2ccc(Cl)cc2OC)c2c1C(=O)NCC1(CCOCC1)C2 [Example 211, [(2R)-3-(3-ethyl-4-oxo-spiro[6,8-dihydro-5H-pyrazolo[4,3-c]azepine-7,4′-tetrahydropyran]-1-yl)-2-methyl-propyl] 4-chloro-2-methoxy-benzoate] | > 7.00 |
| CCc1nn(CCCOC(=O)C(C)C)c2c1C(=O)NCC1(CCOCC1)C2 [Example 7, 3-(3-ethyl-4-oxo-spiro[6,8-dihydro-5H-pyrazolo[4,3-c]azepine-7,4′-tetrahydropyran]-1-yl)propyl 2-methylpropanoate] | 6.30 to 7.00 |
| CCc1nn(C[C@@H](C)COC(=O)c2ccc(F)cc2OC)c2c1C(=O)NCC1(CCOCC1)C2 [Example 195, [(2R)-3-(3-ethyl-4-oxo-spiro[6,8-dihydro-5H-pyrazolo[4,3-c]azepine-7,4′-tetrahydropyran]-1-yl)-2-methyl-propyl] 4-fluoro-2-methoxy-benzoate] | > 7.00 |
| CCc1nn(CCCOC(=O)c2ccc(Cl)cc2)c2c1C(=O)NCC1(CCOCC1)C2 [Example 42, 3-(3-ethyl-4-oxo-spiro[6,8-dihydro-5H-pyrazolo[4,3-c]azepine-7,4′-tetrahydropyran]-1-yl)propyl 4-chlorobenzoate] | > 7.00 |
| CCc1nn(CCCOC(=O)c2ccccc2C(F)(F)F)c2c1C(=O)NCC1(CCOCC1)C2 [Example 95, 3-(3-ethyl-4-oxo-spiro[6,8-dihydro-5H-pyrazolo[4,3-c]azepine-7,4′-tetrahydropyran]-1-yl)propyl 2-(trifluoromethyl)benzoate] | > 7.00 |
| CCc1nn(C[C@@H](C)COC(=O)c2ccc(Cl)cc2C)c2c1C(=O)NCC1(CCOCC1)C2 [Example 196, [(2R)-3-(3-ethyl-4-oxo-spiro[6,8-dihydro-5H-pyrazolo[4,3-c]azepine-7,4′-tetrahydropyran]-1-yl)-2-methyl-propyl] 4-chloro-2-methyl-benzoate] | > 7.00 |
| CCc1nn(CCCOC(=O)c2ccc(F)c(C)c2)c2c1C(=O)NCC1(CCOCC1)C2 [Example 35, 3-(3-ethyl-4-oxo-spiro[6,8-dihydro-5H-pyrazolo[4,3-c]azepine-7,4′-tetrahydropyran]-1-yl)propyl 4-fluoro-3-methyl-benzoate] | > 7.00 |
| CCc1nn(C[C@@H](C)COC(=O)c2cc(C(F)(F)F)ccc2Cl)c2c1C(=O)NCC1(CCOCC1)C2 [Example 241, [(2R)-3-(3-ethyl-4-oxo-spiro[6,8-dihydro-5H-pyrazolo[4,3-c]azepine-7,4′-tetrahydropyran]-1-yl)-2-methyl-propyl] 2-chloro-5-(trifluoromethyl)benzoate] | > 7.00 |
| CCc1nn(C[C@@H](C)COC(=O)c2cccc(S(=O)(=O)C(C)C)c2)c2c1C(=O)NCC1(CCOCC1)C2 [Example 242, [(2R)-3-(3-ethyl-4-oxo-spiro[6,8-dihydro-5H-pyrazolo[4,3-c]azepine-7,4′-tetrahydropyran]-1-yl)-2-methyl-propyl] 3-isopropylsulfonylbenzoate] | > 7.00 |
| CCc1nn(C[C@@H](C)COC(=O)C(C)C)c2c1C(=O)NCC1(CCOCC1)C2 [Example 160, [(2R)-3-(3-ethyl-4-oxo-spiro[6,8-dihydro-5H-pyrazolo[4,3-c]azepine-7,4′-tetrahydropyran]-1-yl)-2-methyl-propyl] 2-methylpropanoate] | > 7.00 |
| CCc1nn(C[C@@H](C)COC(=O)c2ccc(Cl)c(OC)c2)c2c1C(=O)NCC1(CCOCC1)C2 [Example 208, [(2R)-3-(3-ethyl-4-oxo-spiro[6,8-dihydro-5H-pyrazolo[4,3-c]azepine-7,4′-tetrahydropyran]-1-yl)-2-methyl-propyl] 4-chloro-3-methoxy-benzoate] | > 7.00 |
| CCc1nn(C[C@@H](C)COC(=O)c2ccc(C)cc2OC)c2c1C(=O)NCC1(CCOCC1)C2 [Example 187, [(2R)-3-(3-ethyl-4-oxo-spiro[6,8-dihydro-5H-pyrazolo[4,3-c]azepine-7,4′-tetrahydropyran]-1-yl)-2-methyl-propyl] 2-methoxy-4-methyl-benzoate] | > 7.00 |
| CCc1nn(C[C@@H](C)COC(=O)c2ccc(C(=O)N3CCCCC3)cc2)c2c1C(=O)NCC1(CCOCC1)C2 [Example 258, [(2R)-3-(3-ethyl-4-oxo-spiro[6,8-dihydro-5H-pyrazolo[4,3-c]azepine-7,4′-tetrahydropyran]-1-yl)-2-methyl-propyl] 4-(piperidine-1-carbonyl)benzoate] | > 7.00 |

Same assay, conditions: read-out: PDE4 IC50 range

| SMILES | pIC50 |
| --- | --- |
| CCc1nn(CC(C)(C)COC(=O)c2cccc(OC)c2)c2c1C(=O)NCC1(CCOCC1)C2 [Example 289, [3-(3-ethyl-4-oxo-spiro[6,8-dihydro-5H-pyrazolo[4,3-c]azepine-7,4′-tetrahydropyran]-1-yl)-2,2-dimethyl-propyl] 3-methoxybenzoate] | > 7.00 |
| CCc1nn(CC(C)(C)COC(=O)c2ccc(F)cc2)c2c1C(=O)NCC1(CCOCC1)C2 [Example 285, [3-(3-ethyl-4-oxo-spiro[6,8-dihydro-5H-pyrazolo[4,3-c]azepine-7,4′-tetrahydropyran]-1-yl)-2,2-dimethyl-propyl] 4-fluorobenzoate] | > 7.00 |
| CCc1nn(CC(C)(C)COC(=O)c2cccc(S(=O)(=O)N3CCN(C(C)=O)CC3)c2)c2c1C(=O)NCC1(CCOCC1)C2 [Example 325, [3-(3-ethyl-4-oxo-spiro[6,8-dihydro-5H-pyrazolo[4,3-c]azepine-7,4′-tetrahydropyran]-1-yl)-2,2-dimethyl-propyl] 3-(4-acetylpiperazin-1-yl)sulfonylbenzoate] | > 7.00 |
| CCc1nn(CC(C)(C)COC(=O)c2ccc(S(=O)(=O)C(C)C)cc2)c2c1C(=O)NCC1(CCOCC1)C2 [Example 317, [3-(3-ethyl-4-oxo-spiro[6,8-dihydro-5H-pyrazolo[4,3-c]azepine-7,4′-tetrahydropyran]-1-yl)-2,2-dimethyl-propyl] 4-isopropylsulfonylbenzoate] | > 7.00 |
| CCc1nn(CC2(COC(=O)c3ccc(Cl)cc3)CC2)c2c1C(=O)NCC1(CCOCC1)C2 [Example 355, [1-[(3-ethyl-4-oxo-spiro[6,8 dihydro-5H-pyrazolo[4,3-c]azepine-7,4′-letrahydropyran]-1-yl)methyl]cyclopropyl]methyl 4-chlorobenzoate] | > 7.00 |
| CCc1nn(CC(C)(C)COC(=O)c2ccc(C(=O)N3CCN(C(C)=O)CC3)cc2)c2c1C(=O)NCC1(CCOCC1)C2 [Example 338, [3-(3-ethyl-4-oxo-spiro[6,8-dihydro-5H-pyrazolo[4,3-c]azepine-7,4′-tetrahydropyran]-1-yl)-2,2-dimethyl-propyl] 4-(4-acetylpiperazine-1-carbonyl)benzoate] | > 7.00 |
| CCc1nn(CC(C)(C)COC(=O)c2cccc(C(=O)NC)c2)c2c1C(=O)NCC1(CCOCC1)C2 [Example 340, [3-(3-ethyl-4-oxo-spiro[6,8-dihydro-5H-pyrazolo[4,3-c]azepine-7,4′-tetrahydropyran]-1-yl)-2,2-dimethyl-propyl] 3-(methylcarbamoyl)-benzoate] | > 7.00 |
| CCc1nn(CC(C)(C)COC(=O)c2ccccc2S(C)(=O)=O)c2c1C(=O)NCC1(CCOCC1)C2 [Example 307, [3-(3-ethyl-4-oxo-spiro[6,8-dihydro-5H-pyrazolo[4,3-c]azepine-7,4′-tetrahydropyran]-1-yl)-2,2-dimethyl-propyl] 2-methylsulfonylbenzoate] | > 7.00 |
| CCc1nn(CC(C)(C)COC(=O)c2ccc(C(=O)N3CCCC3)cc2)c2c1C(=O)NCC1(CCOCC1)C2 [Example 333, [3-(3-ethyl-4-oxo-spiro[6,8-dihydro-5H-pyrazolo[4,3-c]azepine-7,4′-tetrahydropyran]-1-yl)-2,2-dimethyl-propyl] 4-(pyrrolidine-1-carbonyl)benzoate] | > 7.00 |
